Test system: MV-4-11 cells
Test: Gene expression microarray analysis (Affymetrix PrimeView) and GSEA
Format: cell-based, human
Parameters: RFU PODN (11730768_x_at) / Fold change /veh PODN (11730768_x_at) / RFU LINC00158 (11744669_a_at) / Fold change /veh LINC00158 (11744669_a_at) / RFU DUSP10 (11751237_a_at) / Fold change /veh DUSP10 (11751237_a_at) / RFU ID3 (11757404_x_at) / Fold change /veh ID3 (11757404_x_at) / RFU PLEKHG5 (11737974_s_at) / Fold change /veh PLEKHG5 (11737974_s_at) / RFU LRRC4B (11730491_at) / Fold change /veh LRRC4B (11730491_at) / RFU GIMAP4 (11747438_a_at) / Fold change /veh GIMAP4 (11747438_a_at) / RFU KRT8 (11758183_x_at) / Fold change /veh KRT8 (11758183_x_at) / RFU CNN1 (11734310_a_at) / Fold change /veh CNN1 (11734310_a_at) / RFU VPS37D (11726825_at) / Fold change /veh VPS37D (11726825_at) / RFU C10orf10 (11716522_x_at) / Fold change /veh C10orf10 (11716522_x_at) / RFU KIR2DL2 /// KIR2DL4 /// KIR2DL5A /// KIR2DL5B /// KIR2DS1 /// KIR2DS2 /// KIR2DS3 /// KIR2DS4 /// KIR3DL3 /// KIR3DL3 /// KIR3DS1 (11738374_at) / Fold change /veh KIR2DL2 /// KIR2DL4 /// KIR2DL5A /// KIR2DL5B /// KIR2DS1 /// KIR2DS2 /// KIR2DS3 /// KIR2DS4 /// KIR3DL3 /// KIR3DL3 /// KIR3DS1 (11738374_at) / RFU C1QL1 (11718748_at) / Fold change /veh C1QL1 (11718748_at) / RFU TMPRSS4 (11747572_a_at) / Fold change /veh TMPRSS4 (11747572_a_at) / RFU HAMP (11756126_x_at) / Fold change /veh HAMP (11756126_x_at) / RFU RNFT2 (11725882_a_at) / Fold change /veh RNFT2 (11725882_a_at) / RFU NR4A2 (11747474_a_at) / Fold change /veh NR4A2 (11747474_a_at) / RFU ABCC12 (11746883_a_at) / Fold change /veh ABCC12 (11746883_a_at) / RFU TMEM136 (11760407_x_at) / Fold change /veh TMEM136 (11760407_x_at) / RFU CLDN22 /// WWC2 (11732394_at) / Fold change /veh CLDN22 /// WWC2 (11732394_at) / RFU HLA-DPB1 (11760878_x_at) / Fold change /veh HLA-DPB1 (11760878_x_at) / RFU SPINT1 (11716480_a_at) / Fold change /veh SPINT1 (11716480_a_at) / RFU GAP43 (11754022_s_at) / Fold change /veh GAP43 (11754022_s_at) / RFU A4GNT (11735810_at) / Fold change /veh A4GNT (11735810_at) / RFU PRB3 (11715151_x_at) / Fold change /veh PRB3 (11715151_x_at) / RFU TUBB4B (11761932_at) / Fold change /veh TUBB4B (11761932_at) / RFU CAPN14 (11732068_a_at) / Fold change /veh CAPN14 (11732068_a_at) / RFU TMCC2 (11721928_a_at) / Fold change /veh TMCC2 (11721928_a_at) / RFU IRGQ (11745062_a_at) / Fold change /veh IRGQ (11745062_a_at) / RFU FAM174B (11720279_a_at) / Fold change /veh FAM174B (11720279_a_at) / RFU TMPRSS4 (11748680_a_at) / Fold change /veh TMPRSS4 (11748680_a_at) / RFU FAM212B (11763350_a_at) / Fold change /veh FAM212B (11763350_a_at) / RFU PLEKHG5 (11743358_a_at) / Fold change /veh PLEKHG5 (11743358_a_at) / RFU ZSCAN30 (11745921_a_at) / Fold change /veh ZSCAN30 (11745921_a_at) / RFU CMKLR1 (11741424_a_at) / Fold change /veh CMKLR1 (11741424_a_at) / RFU LOC101060620 /// MAPK8IP1 (11723275_at) / Fold change /veh LOC101060620 /// MAPK8IP1 (11723275_at) / RFU SPTSSB (11747773_x_at) / Fold change /veh SPTSSB (11747773_x_at) / RFU PRSS12 (11739890_at) / Fold change /veh PRSS12 (11739890_at) / RFU BIN1 (11741810_x_at) / Fold change /veh BIN1 (11741810_x_at) / RFU WNT11 (11732464_a_at) / Fold change /veh WNT11 (11732464_a_at) / RFU C10orf10 (11716521_a_at) / Fold change /veh C10orf10 (11716521_a_at) / RFU C5orf56 (11738089_at) / Fold change /veh C5orf56 (11738089_at) / RFU CYB561 (11721691_x_at) / Fold change /veh CYB561 (11721691_x_at) / RFU ANKRD19P (11752326_a_at) / Fold change /veh ANKRD19P (11752326_a_at) / RFU OR2T12 /// OR2T33 /// OR2T8 (11738714_s_at) / Fold change /veh OR2T12 /// OR2T33 /// OR2T8 (11738714_s_at) / RFU VCAN (11748164_a_at) / Fold change /veh VCAN (11748164_a_at) / RFU JSRP1 (11732532_at) / Fold change /veh JSRP1 (11732532_at) / RFU KRTAP10-11 (11738290_x_at) / Fold change /veh KRTAP10-11 (11738290_x_at) / RFU MYO3A (11730013_a_at) / Fold change /veh MYO3A (11730013_a_at) / RFU EBF3 (11725865_a_at) / Fold change /veh EBF3 (11725865_a_at) / RFU CAMK2N1 (11719241_x_at) / Fold change /veh CAMK2N1 (11719241_x_at) / RFU C5orf56 (11738088_a_at) / Fold change /veh C5orf56 (11738088_a_at) / RFU OLFML3 (11715873_a_at) / Fold change /veh OLFML3 (11715873_a_at) / RFU LOC100653217 /// NTM (11731650_a_at) / Fold change /veh LOC100653217 /// NTM (11731650_a_at) / RFU MAPK11 (11762145_a_at) / Fold change /veh MAPK11 (11762145_a_at) / RFU FIZ1 (11724087_x_at) / Fold change /veh FIZ1 (11724087_x_at) / RFU OASL (11726364_x_at) / Fold change /veh OASL (11726364_x_at) / RFU SOX15 (11748057_x_at) / Fold change /veh SOX15 (11748057_x_at) / RFU CD79A (11719716_a_at) / Fold change /veh CD79A (11719716_a_at) / RFU HIST1H1D (11736915_at) / Fold change /veh HIST1H1D (11736915_at) / RFU CASKIN2 (11723855_a_at) / Fold change /veh CASKIN2 (11723855_a_at) / RFU LOC730098 (11760151_x_at) / Fold change /veh LOC730098 (11760151_x_at) / RFU OR4N2 (11742367_at) / Fold change /veh OR4N2 (11742367_at) / RFU PRRT2 (11749266_a_at) / Fold change /veh PRRT2 (11749266_a_at) / RFU SNX32 (11753110_a_at) / Fold change /veh SNX32 (11753110_a_at) / RFU CDHR5 (11726645_a_at) / Fold change /veh CDHR5 (11726645_a_at) / RFU RCAN1 (11760418_a_at) / Fold change /veh RCAN1 (11760418_a_at) / RFU FAM167A (11723789_a_at) / Fold change /veh FAM167A (11723789_a_at) / RFU FAM26E (11764081_at) / Fold change /veh FAM26E (11764081_at) / RFU ISYNA1 (11749810_s_at) / Fold change /veh ISYNA1 (11749810_s_at) / RFU ACY1 (11761880_at) / Fold change /veh ACY1 (11761880_at) / RFU 11764098_at / Fold change /veh 11764098_at / RFU SAMD14 (11745864_x_at) / Fold change /veh SAMD14 (11745864_x_at) / RFU NPB (11741838_a_at) / Fold change /veh NPB (11741838_a_at) / RFU TMPRSS6 (11731388_a_at) / Fold change /veh TMPRSS6 (11731388_a_at) / RFU KRTAP10-2 (11738614_at) / Fold change /veh KRTAP10-2 (11738614_at) / RFU ARHGAP8 /// PRR5-ARHGAP8 (11727945_x_at) / Fold change /veh ARHGAP8 /// PRR5-ARHGAP8 (11727945_x_at) / RFU KRTAP5-7 /// NADSYN1 (11734609_at) / Fold change /veh KRTAP5-7 /// NADSYN1 (11734609_at) / RFU RASL12 (11751679_a_at) / Fold change /veh RASL12 (11751679_a_at) / RFU CDKN2B (11736163_a_at) / Fold change /veh CDKN2B (11736163_a_at) / RFU PRF1 (11729649_at) / Fold change /veh PRF1 (11729649_at) / RFU, ZNF638 /// ZNF638-IT1 / Fold change vs veh, ZNF638 /// ZNF638-IT1 / RFU, PANK3 / Fold change vs veh, PANK3 / RFU, SH3YL1 / Fold change vs veh, SH3YL1 / RFU, ZEB2 / Fold change vs veh, ZEB2 / RFU, NRIP1 / Fold change vs veh, NRIP1 / RFU, PTTG1IP / Fold change vs veh, PTTG1IP / RFU, CAPN2 / Fold change vs veh, CAPN2 / RFU, MED14 / Fold change vs veh, MED14 / RFU, SNORA58 / Fold change vs veh, SNORA58 / RFU, C1orf63 / Fold change vs veh, C1orf63 / RFU, LRRFIP1 / Fold change vs veh, LRRFIP1 / RFU, NDUFAF7 / Fold change vs veh, NDUFAF7 / RFU, SLC12A2 / Fold change vs veh, SLC12A2 / RFU, IBTK / Fold change vs veh, IBTK / RFU, ESF1 / Fold change vs veh, ESF1 / Fold change vs veh, TMEM50B / RFU, TAOK1 / Fold change vs veh, TAOK1 / RFU, ACBD3 / Fold change vs veh, ACBD3 / RFU, TMA16 / Fold change vs veh, TMA16 / RFU, RWDD3 / Fold change vs veh, RWDD3 / RFU, BCAT1 / Fold change vs veh, BCAT1 / RFU, EDEM3 / Fold change vs veh, EDEM3 / RFU, TMEM33 / Fold change vs veh, TMEM33 / RFU, WDR75 / Fold change vs veh, WDR75 / RFU, AHCTF1 / Fold change vs veh, AHCTF1 / RFU, TFRC / Fold change vs veh, TFRC / RFU, ZDHHC17 / Fold change vs veh, ZDHHC17 / RFU, NOM1 / Fold change vs veh, NOM1 / RFU, ARL8B / Fold change vs veh, ARL8B / RFU, ZBTB11 / Fold change vs veh, ZBTB11 / RFU, TAMM41 / Fold change vs veh, TAMM41 / RFU, KIAA1704 /// LOC100996395 / Fold change vs veh, KIAA1704 /// LOC100996395 / RFU, ING1 / Fold change vs veh, ING1 / RFU, TRMT61B / Fold change vs veh, TRMT61B / RFU, FUBP3 / Fold change vs veh, FUBP3 / RFU, TP53 / Fold change vs veh, TP53 / RFU, TNKS2 / Fold change vs veh, TNKS2 / RFU, ZFP14 / Fold change vs veh, ZFP14 / RFU, ACTR2 / Fold change vs veh, ACTR2 / RFU, PPP3R1 / Fold change vs veh, PPP3R1 / RFU, PIK3R1 / Fold change vs veh, PIK3R1 / RFU, HNRNPA1 / Fold change vs veh, HNRNPA1 / RFU, RNF170 / Fold change vs veh, RNF170 / RFU, ZNF28 / Fold change vs veh, ZNF28 / RFU, RNGTT / Fold change vs veh, RNGTT / RFU, OGT / Fold change vs veh, OGT / RFU, BRD1 / Fold change vs veh, BRD1 / RFU, MARS / Fold change vs veh, MARS / RFU, ZNF655 / Fold change vs veh, ZNF655 / RFU, FAHD1 / Fold change vs veh, FAHD1 / RFU, BDP1 / Fold change vs veh, BDP1 / RFU, LRRCC1 / Fold change vs veh, LRRCC1 / RFU, ARID1A / Fold change vs veh, ARID1A / RFU, ZNF146 / Fold change vs veh, ZNF146 / RFU, ZNF330 / Fold change vs veh, ZNF330 / RFU, GPN3 / Fold change vs veh, GPN3 / RFU, C9orf123 / Fold change vs veh, C9orf123 / RFU, N4BP2L2 / Fold change vs veh, N4BP2L2 / RFU, ARFIP1 / Fold change vs veh, ARFIP1 / RFU, FAM179B / Fold change vs veh, FAM179B / RFU, BCL10 / Fold change vs veh, BCL10 / RFU, UHRF1BP1L / Fold change vs veh, UHRF1BP1L / RFU, BET1 / Fold change vs veh, BET1 / RFU, CNOT2 / Fold change vs veh, CNOT2 / RFU, ZNF268 / Fold change vs veh, ZNF268 / Fold change vs veh, ZNF507 / RFU, DGCR2 / Fold change vs veh, DGCR2 / RFU, WDSUB1 / Fold change vs veh, WDSUB1 / Fold change vs veh, HSP90B1 /// MIR3652 / RFU, ADSS / Fold change vs veh, ADSS / RFU, GK / Fold change vs veh, GK / RFU, ZNF148 / Fold change vs veh, ZNF148 / RFU, TAF9 / Fold change vs veh, TAF9 / RFU, SLC1A5 / Fold change vs veh, SLC1A5 / RFU, SLMO2 / Fold change vs veh, SLMO2 / RFU, ABCC4 / Fold change vs veh, ABCC4 / RFU, LOC101060439 /// RAP1B / Fold change vs veh, LOC101060439 /// RAP1B / RFU, RFX7 / Fold change vs veh, RFX7 / RFU, GTPBP10 / Fold change vs veh, GTPBP10 / RFU, CNEP1R1 / Fold change vs veh, CNEP1R1 / RFU, BIVM-ERCC5 /// ERCC5 / Fold change vs veh, BIVM-ERCC5 /// ERCC5 / RFU, ILF3 / Fold change vs veh, ILF3 / RFU 11762660_at / Fold change /veh 11762660_at / RFU VCAN (11757783_s_at) / Fold change /veh VCAN (11757783_s_at) / RFU DDX43 (11728927_at) / Fold change /veh DDX43 (11728927_at) / RFU KRT8 (11758188_x_at) / Fold change /veh KRT8 (11758188_x_at) / RFU NKD1 (11759106_at) / Fold change /veh NKD1 (11759106_at) / RFU SRD5A1 (11742802_a_at) / Fold change /veh SRD5A1 (11742802_a_at) / RFU TPSAB1 /// TPSB2 (11721975_s_at) / Fold change /veh TPSAB1 /// TPSB2 (11721975_s_at) / RFU GSTM3 (11746129_a_at) / Fold change /veh GSTM3 (11746129_a_at) / RFU IL23R (11737362_x_at) / Fold change /veh IL23R (11737362_x_at) / RFU TMEM51 (11727254_a_at) / Fold change /veh TMEM51 (11727254_a_at) / RFU PIWIL2 (11732686_x_at) / Fold change /veh PIWIL2 (11732686_x_at) / RFU ORM1 (11744905_x_at) / Fold change /veh ORM1 (11744905_x_at) / RFU CCDC152 (11743942_at) / Fold change /veh CCDC152 (11743942_at) / RFU ECM1 (11717891_a_at) / Fold change /veh ECM1 (11717891_a_at) / RFU IL23R (11748794_a_at) / Fold change /veh IL23R (11748794_a_at) / RFU TNFAIP8L3 (11732012_x_at) / Fold change /veh TNFAIP8L3 (11732012_x_at) / RFU MBOAT4 (11741988_at) / Fold change /veh MBOAT4 (11741988_at) / RFU 11764193_at / Fold change /veh 11764193_at / RFU TMEM53 (11763286_at) / Fold change /veh TMEM53 (11763286_at) / RFU MAGEB2 (11727129_at) / Fold change /veh MAGEB2 (11727129_at) / RFU TMEM200A (11744735_a_at) / Fold change /veh TMEM200A (11744735_a_at) / RFU CCDC152 (11751479_a_at) / Fold change /veh CCDC152 (11751479_a_at) / RFU FAM211A (11726209_a_at) / Fold change /veh FAM211A (11726209_a_at) / RFU RGS16 (11746705_a_at) / Fold change /veh RGS16 (11746705_a_at) / RFU VCAN (11755009_s_at) / Fold change /veh VCAN (11755009_s_at) / RFU RHOB (11743442_s_at) / Fold change /veh RHOB (11743442_s_at) / RFU RGS16 (11720943_a_at) / Fold change /veh RGS16 (11720943_a_at) / RFU RGS16 (11720944_at) / Fold change /veh RGS16 (11720944_at) / RFU, VPS4B / Fold change vs veh, VPS4B / RFU, CREB1 / Fold change vs veh, CREB1 / RFU, DNAJC13 / Fold change vs veh, DNAJC13 / RFU, GNAQ / Fold change vs veh, GNAQ / RFU, CDK5R1 / Fold change vs veh, CDK5R1 / RFU, ZRANB3 / Fold change vs veh, ZRANB3 / RFU, CUL4A / Fold change vs veh, CUL4A / RFU, CCNY / Fold change vs veh, CCNY / RFU, UFL1 / Fold change vs veh, UFL1 / RFU, COG3 / Fold change vs veh, COG3 / RFU, DIAPH2 / Fold change vs veh, DIAPH2 / RFU, SKA2 / Fold change vs veh, SKA2 / RFU, AFF3 / Fold change vs veh, AFF3 / RFU, LMF1 / Fold change vs veh, LMF1 / RFU, IPO11 / Fold change vs veh, IPO11 / RFU, DFFB / Fold change vs veh, DFFB / RFU, FOXP1 / Fold change vs veh, FOXP1 / RFU, CARD8 / Fold change vs veh, CARD8 / RFU, STRN3 / Fold change vs veh, STRN3 / RFU, ADK / Fold change vs veh, ADK / RFU, RASSF2 / Fold change vs veh, RASSF2 / RFU, WIPF1 / Fold change vs veh, WIPF1 / RFU, LARP1B / Fold change vs veh, LARP1B / RFU, RASA1 / Fold change vs veh, RASA1 / RFU, RB1 / Fold change vs veh, RB1 / RFU, PPFIA1 / Fold change vs veh, PPFIA1 / RFU, MAT2A / Fold change vs veh, MAT2A / RFU, CCT5 / Fold change vs veh, CCT5 / RFU, WDR92 / Fold change vs veh, WDR92 / RFU, CUX1 / Fold change vs veh, CUX1 / RFU, TTC7A / Fold change vs veh, TTC7A / RFU, TMEM135 / Fold change vs veh, TMEM135 / RFU, DEPTOR / Fold change vs veh, DEPTOR / RFU, CPM / Fold change vs veh, CPM / RFU, DNAJB6 / Fold change vs veh, DNAJB6 / RFU, CACNA2D3 / Fold change vs veh, CACNA2D3 / RFU, DTX4 / Fold change vs veh, DTX4 / RFU, TFCP2 / Fold change vs veh, TFCP2 / RFU, GMCL1 /// GMCL1P1 / Fold change vs veh, GMCL1 /// GMCL1P1 / RFU, AEBP2 / Fold change vs veh, AEBP2 / RFU, SNHG1 /// SNORD22 /// SNORD25 /// SNORD26 /// SNORD27 /// SNORD28 /// SNORD29 /// SNORD31 / Fold change vs veh, SNHG1 /// SNORD22 /// SNORD25 /// SNORD26 /// SNORD27 /// SNORD28 /// SNORD29 /// SNORD31 / Fold change (Aza/veh), C12orf56 (ProbeSet 11735607_a_at) / Fold change (ACY-1035/veh), C12orf56 (ProbeSet 11735607_a_at) / Fold change (Aza/veh), FGFR1OP (ProbeSet 11751329_s_at) / Fold change (ACY-1035/veh), FGFR1OP (ProbeSet 11751329_s_at) / Fold change (Aza/veh), VPS36 (ProbeSet 11739960_a_at) / Fold change (ACY-1035/veh), VPS36 (ProbeSet 11739960_a_at) / RFU SYPL1 (11715823_x_at) / Fold change /veh SYPL1 (11715823_x_at) / RFU IGFBP7 (11715501_s_at) / Fold change /veh IGFBP7 (11715501_s_at) / RFU REEP3 (11722064_at) / Fold change /veh REEP3 (11722064_at) / RFU IGLL1 (11728026_x_at) / Fold change /veh IGLL1 (11728026_x_at): dose or concentration left out as unconfirmed
Conditions: MV-4-11 cells, 48 hours

Nc1ncn([C@@H]2O[C@H](CO)[C@@H](O)[C@H]2O)c(=O)n1 [azacitidine]
RFU TMEM53 (11763286_at): 26.80 RFU

From paper PMC5218480 (PLoS ONE, 2017)
